From patent US20260284065A1, “PHARMACEUTICAL COMPOSITION FOR PREVENTION OR TREATMENT OF CANCER FOR OVERCOMING RESISTANCE TO IMMUNE CHECKPOINT INHIBITORS” (AJOU UNIVERSITY INDUSTRY-ACADEMIC COOPERATION FOUNDATION, priority 2023, published 2026)

System: mouse gastric cancer cell line YTN16
Experiment: YTN16 syngeneic mouse model: subcutaneous tumor size and tumor weight
Format: in vivo
Method: The experiment was conducted by dividing the mice into a control group (Control), a group administered with Comparative Example 1 (Anti-PD-1), a group administered with Comparative Example 2 (CCB-3233), and a group administered with Example 1 (Anti-PD-1+CCB-3233), and eight mouse models were used for each group.
Comparative Example 1 (Anti-PD-1) was diluted in 1×PBS at a concentration of 10 mg/kg and administered intraperitoneally to the mice, Comparative Example 2 (CCB-3233) was orally administered to the mice at a concentration of 50 mg/kg by dissolving 5% DMSO+5% CMC-NA in 1×PBS, and Example 1 (Anti-PD-1+CCB-3233) was diluted and prepared in different solvents as in Comparative Examples 1 and 2, and then administered sequentially.

In the case of `COc1cc2c(Oc3ccc(Nc4nn(C)cc4C(=O)NC4CCCCC4)cc3F)ccnc2cc1OCCCN1CCOCC1` [Comparative Example 2], the “therapeutic effect of the immune checkpoint inhibitor” value (CCB-3233 administered together with the immune checkpoint inhibitor to YTN 16 syngeneic mice resistant to the immune checkpoint inhibitor) is reported as “enhanced” and the “tumor weight (FIG. 2)” value (YTN16 syngeneic mice, anti-PD-1 10 mg/kg intraperitoneally, CCB-3233 50 mg/kg orally, compared between groups) is reported as “no significant difference in tumor weight from the control group”.
